Patent publication US20250144094A1 (Erasca, Inc., priority 2021, published 2025)

Target: Recombinant human ULK1 (1-649) (Homo sapiens (Human), UniProt O75385)
Assay: ULK1 ADP Glo kinase activity assay, new method (ULKtide peptide substrate)
Conditions: 25° C., 40 minutes, read-out: ULK1 biochemical IC50
Protocol: Recombinant human ULK1 (1-649) protein expressed in Sf9 insect cells was obtained from SignalChem (Vancouver, BC), catalog #U01-11G. Active kinase was purified via N-terminal GST tag to >85% purity.
ADP GLO Kinase Assay Reagents were obtained from Promega Corp (Madison, WI), catalog #V9104.
Synthetic peptide substrate (ULKtide) with the amino acid sequence YANWLAASIYLDGKKK was obtained from ThermoFisher Scientific USA.
ULK1 inhibitor potency was determined using the luminescent ADP Glo Kinase Assay (Promega), a universal ADP detection system that measures kinase activity by quantifying the amount of ADP produced during a kinase reaction. ULK1 kinase reactions are performed in a standard 96-well microplate (20 μL reaction volume) at 25° C. for 40 minutes in the presence or absence of the test compound (12-point dilution series starting at 10 μM). Addition of peptide substrate and ATP initiates the kinase reaction.
The standard ADP Glo assay is performed in two steps. In step one, following the kinase reaction, an equal volume of ADP-Glo™ Reagent (20 μL) is added to terminate the kinase reaction and deplete the remaining ATP. In the second step, the Kinase Detection Reagent (10 μL) is added to simultaneously convert ADP to ATP and allow the newly synthesized ATP to be measured using a luciferase/luciferin reaction. Step two of the ADP Glo assay is performed in a white 384-well plate (20 μL final volume). Thirty minutes after the addition of the Detection reagent, light generated from the luciferase reaction is measured (1 second exposure) using a microplate compatible luminometer (CLARIOstar, BMG Labtech).
Inhibition of ULK1 kinase activity is determined for each test compound by comparison to DMSO only control wells. Inhibitor IC50 was calculated by plotting the change in luminescence after 30 minutes (response) versus inhibitor concentration (in log molar) then applying the four-parameter variable slope curve fit (GraphPad Prism). Inhibition of ULK1 in biochemical assay is found in Table 4.

Recombinant human ULK1 (1-649), sequence (O75385 1-649): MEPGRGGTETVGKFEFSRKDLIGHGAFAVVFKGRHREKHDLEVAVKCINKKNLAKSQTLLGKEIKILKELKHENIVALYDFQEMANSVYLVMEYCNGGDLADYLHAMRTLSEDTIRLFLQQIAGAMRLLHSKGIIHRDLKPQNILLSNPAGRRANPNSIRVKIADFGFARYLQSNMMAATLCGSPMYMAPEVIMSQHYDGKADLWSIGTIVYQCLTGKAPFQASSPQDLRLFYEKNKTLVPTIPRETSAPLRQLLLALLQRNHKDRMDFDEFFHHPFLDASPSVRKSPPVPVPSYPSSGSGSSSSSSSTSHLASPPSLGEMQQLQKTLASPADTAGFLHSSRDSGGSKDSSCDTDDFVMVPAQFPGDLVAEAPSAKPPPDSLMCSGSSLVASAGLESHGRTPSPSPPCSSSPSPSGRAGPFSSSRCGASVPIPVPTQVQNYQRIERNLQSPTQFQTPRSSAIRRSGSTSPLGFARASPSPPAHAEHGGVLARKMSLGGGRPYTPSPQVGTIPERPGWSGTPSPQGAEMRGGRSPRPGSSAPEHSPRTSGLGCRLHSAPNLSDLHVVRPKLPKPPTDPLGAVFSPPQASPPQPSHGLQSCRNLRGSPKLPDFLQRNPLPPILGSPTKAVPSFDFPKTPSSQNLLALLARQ

Row | SMILES | IC50
1 | C[C@@H]1CN(c2ccc(Nc3ncc(C(F)(F)F)c(-c4cc5c(s4)C(=O)N(C4COC4)CCS5(=O)=O)n3)c(C3CC3)c2)C[C@H](C)N1 [Example 350, 7-(2-((2-cyclopropyl-4-((3S,5R)-3,5-dimethylpiperazin-1-yl)phenyl)amino)-5-(trifluoromethyl)pyrimidin-4-yl)-4-(oxetan-3-yl)-3,4-dihydrothieno[2,3-f][1,4]thiazepin-5(2H)-one 1,1-dioxide] | ≤ 5 nM
2 | CCN1CCc2cc(Nc3ncc(C(F)(F)F)c(-c4cc5c(s4)C(=O)N(C4CC4)CCS5(=O)=O)n3)c(C(C)C)cc2C1 [Example 267, 4-cyclopropyl-7-(2-((2-ethyl-7-isopropyl-1,2,3,4-tetrahydroisoquinolin-6-yl)amino)-5-(trifluoromethyl)pyrimidin-4-yl)-3,4-dihydrothieno[2,3-f][1,4]thiazepin-5(2H)-one 1,1-dioxide] | ≤ 5 nM
3 | CCc1cc(N2CCN(CC3COC3)CC2)ccc1Nc1ncc(C(F)(F)F)c(-c2cc3c(s2)C(=O)N(C2CC2)CCS3(=O)=O)n1 [Example 266, 4-cyclopropyl-7-(2-((2-ethyl-4-(4-(oxetan-3-ylmethyl)piperazin-1-yl)phenyl)amino)-5-(trifluoromethyl)pyrimidin-4-yl)-3,4-dihydrothieno[2,3-f][1,4]thiazepin-5(2H)-one 1,1-dioxide] | ≤ 5 nM
4 | O=C1c2sc(-c3nc(Nc4cc5c(cc4OC(F)(F)F)CNCC5)ncc3C(F)(F)F)cc2S(=O)(=O)CCN1C1CC1 [Example 273, 4-cyclopropyl-7-(2-((7-(trifluoromethoxy)-1,2,3,4-tetrahydroisoquinolin-6-yl)amino)-5-(trifluoromethyl)pyrimidin-4-yl)-3,4-dihydrothieno[2,3-f][1,4]thiazepin-5(2H)-one 1,1-dioxide] | ≤ 5 nM
5 | O=C1c2sc(-c3nc(Nc4cc5c(cc4Cl)CCNC5)ncc3C(F)(F)F)cc2S(=O)(=O)CCN1C1COC1 [Example 230, 7-(2-((6-chloro-1,2,3,4-tetrahydroisoquinolin-7-yl)amino)-5-(trifluoromethyl)pyrimidin-4-yl)-4-(oxetan-3-yl)-3,4-dihydrothieno[2,3-f][1,4]thiazepin-5(2H)-one 1,1-dioxide] | ≤ 5 nM
6 | CCc1cc(N2CCN[C@H](C)C2)ccc1Nc1ncc(C(F)(F)F)c(-c2cc3c(s2)C(=O)N(C2COC2)CCS3(=O)=O)n1 [Example 406, (R)-7-(2-((2-ethyl-4-(3-methylpiperazin-1-yl)phenyl)amino)-5-(trifluoromethyl)pyrimidin-4-yl)-4-(oxetan-3-yl)-3,4-dihydrothieno[2,3-f][1,4]thiazepin-5(2H)-one 1,1-dioxide] | ≤ 5 nM
7 | Cc1nn(C2CCN(C)CC2)cc1Nc1ncc(C(F)(F)F)c(-c2cc3c(s2)C(=O)NCCS3(=O)=O)n1 [Example 182, 7-(2-((3-methyl-1-(1-methylpiperidin-4-yl)-1H-pyrazol-4-yl)amino)-5-(trifluoromethyl)pyrimidin-4-yl)-3,4-dihydrothieno[2,3-f][1,4]thiazepin-5(2H)-one 1,1-dioxide] | > 100 nM
8 | CN1C2CC1CN(c1ccc(Nc3ncc(C(F)(F)F)c(-c4cc5c(s4)C(=O)N(C4CC4)CCS5(=O)=O)n3)c(C3CC3)c1)C2 [Example 339, 4-cyclopropyl-7-(2-((2-cyclopropyl-4-(6-methyl-3,6-diazabicyclo[3.1.1]heptan-3-yl)phenyl)amino)-5-(trifluoromethyl)pyrimidin-4-yl)-3,4-dihydrothieno[2,3-f][1,4]thiazepin-5(2H)-one 1,1-dioxide] | ≤ 5 nM
9 | CC(C)(O)CN1CCc2cc(Nc3ncc(C(F)(F)F)c(-c4cc5c(s4)C(=O)N(C4COC4)CCS5(=O)=O)n3)c(C3CC3)cc2C1 [Example 291, 7-(2-((7-cyclopropyl-2-(2-hydroxy-2-methylpropyl)-1,2,3,4-tetrahydroisoquinolin-6-yl)amino)-5-(trifluoromethyl)pyrimidin-4-yl)-4-(oxetan-3-yl)-3,4-dihydrothieno[2,3-f][1,4]thiazepin-5(2H)-one 1,1-dioxide] | ≤ 5 nM
10 | C[C@H]1CN(c2ccc(Nc3ncc(C(F)(F)F)c(-c4cc5c(s4)C(=O)N(C4CC4)CCS5(=O)=O)n3)c(C3CC3)c2)CCN1 [Example 331, (S)-4-cyclopropyl-7-(2-((2-cyclopropyl-4-(3-methylpiperazin-1-yl)phenyl)amino)-5-(trifluoromethyl)pyrimidin-4-yl)-3,4-dihydrothieno[2,3-f][1,4]thiazepin-5(2H)-one 1,1-dioxide] | ≤ 5 nM
11 | O=C1c2sc(-c3nc(Nc4cc5c(cc4C4CC4)CNCC5)ncc3C3CC3)cc2S(=O)(=O)CCN1C1CC1 [Example 261, 4-cyclopropyl-7-(5-cyclopropyl-2-((7-cyclopropyl-1,2,3,4-tetrahydroisoquinolin-6-yl)amino)pyrimidin-4-yl)-3,4-dihydrothieno[2,3-f][1,4]thiazepin-5(2H)-one 1,1-dioxide] | ≤ 5 nM
12 | O=C1c2sc(-c3nc(Nc4cc5c(cc4Cl)CN(CCF)CC5)ncc3C(F)(F)F)cc2S(=O)(=O)CCN1C1CC1 [Example 227, 7-(2-((7-chloro-2-(2-fluoroethyl)-1,2,3,4-tetrahydroisoquinolin-6-yl)amino)-5-(trifluoromethyl)pyrimidin-4-yl)-4-cyclopropyl-3,4-dihydrothieno[2,3-f][1,4]thiazepin-5(2H)-one 1,1-dioxide] | ≤ 5 nM
13 | O=C1c2sc(-c3nc(Nc4ccc(C5CCN(CC6COC6)CC5)cc4C4CC4)ncc3C(F)(F)F)cc2S(=O)(=O)CCN1C1CC1 [Example 254, 4-cyclopropyl-7-(2-((2-cyclopropyl-4-(1-(oxetan-3-ylmethyl)piperidin-4-yl)phenyl)amino)-5-(trifluoromethyl)pyrimidin-4-yl)-3,4-dihydrothieno[2,3-f][1,4]thiazepin-5(2H)-one 1,1-dioxide] | ≤ 5 nM

Second part, the molecule after the results:

Row | IC50 | SMILES
14 | ≤ 5 nM | CCc1cc(N2C[C@@H](C)N[C@@H](C)C2)ccc1Nc1ncc(C(F)(F)F)c(-c2cc3c(s2)C(=O)N(C2CC2)CCS3(=O)=O)n1 [Example 366, 4-cyclopropyl-7-(2-((4-((3S,5R)-3,5-dimethylpiperazin-1-yl)-2-ethylphenyl)amino)-5-(trifluoromethyl)pyrimidin-4-yl)-3,4-dihydrothieno[2,3-f][1,4]thiazepin-5(2H)-one 1,1-dioxide]
15 | ≤ 5 nM | CCc1cc(N2C[C@@H]3C[C@H]2CN3)ccc1Nc1ncc(C(F)(F)F)c(-c2cc3c(s2)C(=O)N(C2COC2)CCS3(=O)=O)n1 [Example 335, 7-(2-((4-((1S,4S)-2,5-diazabicyclo[2.2.1]heptan-2-yl)-2-ethylphenyl)amino)-5-(trifluoromethyl)pyrimidin-4-yl)-4-(oxetan-3-yl)-3,4-dihydrothieno[2,3-f][1,4]thiazepin-5(2H)-one 1,1-dioxide]
16 | ≤ 5 nM | CN1C[C@@H]2C[C@H]1CN2c1ccc(Nc2ncc(C(F)(F)F)c(-c3cc4c(s3)C(=O)N(C3COC3)CCS4(=O)=O)n2)c(C2CC2)c1 [Example 317, 7-(2-((2-cyclopropyl-4-((1S,4S)-5-methyl-2,5-diazabicyclo[2.2.1]heptan-2-yl)phenyl)amino)-5-(trifluoromethyl)pyrimidin-4-yl)-4-(oxetan-3-yl)-3,4-dihydrothieno[2,3-f][1,4]thiazepin-5(2H)-one 1,1-dioxide]
17 | ≤ 5 nM | CCc1cc(N2CCN(C(C)C)CC2)ccc1Nc1ncc(C(F)(F)F)c(-c2cc3c(s2)C(=O)N(C2CC2)CCS3(=O)=O)n1 [Example 272, 4-cyclopropyl-7-(2-((2-ethyl-4-(4-isopropylpiperazin-1-yl)phenyl)amino)-5-(trifluoromethyl)pyrimidin-4-yl)-3,4-dihydrothieno[2,3-f][1,4]thiazepin-5(2H)-one 1,1-dioxide]
18 | ≤ 5 nM | Cc1cc2c(cc1Nc1ncc(C(F)(F)F)c(-c3cc4c(s3)C(=O)N(C)CCS4(=O)=O)n1)CCNC2 [Example 184, 4-methyl-7-(2-((7-methyl-1,2,3,4-tetrahydroisoquinolin-6-yl)amino)-5-(trifluoromethyl)pyrimidin-4-yl)-3,4-dihydrothieno[2,3-f][1,4]thiazepin-5(2H)-one 1,1-dioxide]
19 | ≤ 5 nM | CN1CCC(c2ccc(Nc3ncc(C(F)(F)F)c(-c4cc5c(s4)C(=O)N(C4CC4)CCS5(=O)=O)n3)c(C3CC3)c2)CC1 [Example 252, 4-cyclopropyl-7-(2-((2-cyclopropyl-4-(1-methylpiperidin-4-yl)phenyl)amino)-5-(trifluoromethyl)pyrimidin-4-yl)-3,4-dihydrothieno[2,3-f][1,4]thiazepin-5(2H)-one 1,1-dioxide]
20 | ≤ 5 nM | CCN1CCN(c2ccc(Nc3ncc(C(F)(F)F)c(-c4cc5c(s4)C(=O)N(C4CC4)CCS5(=O)=O)n3)c(C3CC3)c2)CC1 [Example 255, 4-cyclopropyl-7-(2-((2-cyclopropyl-4-(4-ethylpiperazin-1-yl)phenyl)amino)-5-(trifluoromethyl)pyrimidin-4-yl)-3,4-dihydrothieno[2,3-f][1,4]thiazepin-5(2H)-one 1,1-dioxide]
